Measured values as given in US11286268B1, “EIF4E-inhibiting compounds and methods” (EFFECTOR THERAPEUTICS, INC., priority 2019, dated 2022).
Where two headings read alike, the source gives them in different places.

Molecular target: recombinant eIF4E (Homo sapiens (Human), UniProt P06730)
Assay: Fluorescence polarization competition assay for eIF4E binding potency
Procedure, shortened: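 IC50 values reflect 50% displacement of 20 nM EDA-m7GDP-ATTO-550 from 75 nM eIF4E, measured by fluorescence polarization after 30 min at room temperature. Buffer: 20 mM Tris pH 7.5, 100 mM NaCl, 1 mM DTT, 0.02% Tween-20; 1% DMSO.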

[1] = fluorescence polarization competition, 75 nM recombinant eIF4E, 20 nM EDA-m7GDP-ATTO-550, IC50 class, read-out: elF4E FP
[2] = inhibition of eIF4E/EDA-m7GDP-ATTO-550 binding by 50%, Table 4B calculated values, read-out: IC50

recombinant eIF4E, sequence (P06730 whole entry): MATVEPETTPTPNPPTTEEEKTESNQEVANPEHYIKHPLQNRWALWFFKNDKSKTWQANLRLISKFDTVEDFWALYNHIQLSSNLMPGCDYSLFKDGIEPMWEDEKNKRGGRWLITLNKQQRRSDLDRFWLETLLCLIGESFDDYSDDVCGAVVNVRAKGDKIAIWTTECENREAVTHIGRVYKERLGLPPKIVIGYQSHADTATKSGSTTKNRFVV

IC50 [1] [nM]	IC50 [2] [nM]	SMILES
< 50	14.6	Cc1nc2cnc(/C=C/CN3CC(F)C3)c(C#N)c2c(=O)n1CCOc1ccc(Cl)cc1-c1ccnc2c(C(=O)O)csc12 [compound 1122]
< 50	21.5	Cc1nc2cnc(/C=C/C3(N(C)C)CC3)c(C#N)c2c(=O)n1CCOc1ccc(Cl)cc1-c1ccnc2c(C(=O)O)csc12 [compound 1123]
< 50	14.5	Cc1nc2cnc(N(C)C3CCN(CC(F)(F)C4CC4)CC3)c(C#N)c2c(=O)n1CC#Cc1ccc(Cl)cc1-c1ccnc2c(C(=O)O)csc12 [compound 1125]
< 50	26.6	Cc1nc2cnc(N(C)C3CCN(CC(F)(F)C4CC4)CC3)c(C#N)c2c(=O)n1CCOc1ccc(Cl)cc1-c1ccnc2c(C(=O)O)csc12 [compound 1126]
< 50	12.9	Cc1nc2cnc(N(C)C3CCN(CC(=O)C(C)C)CC3)c(C#N)c2c(=O)n1CCOc1ccc(Cl)cc1-c1ccnc2c(C(=O)O)csc12 [compound 1127]
< 50	23.9	Cc1nc2cnc(N(C)C3CCN(CC(=O)C4CC4)CC3)c(C#N)c2c(=O)n1CCOc1ccc(Cl)cc1-c1ccnc2c(C(=O)O)csc12 [compound 1128]
< 50	14.7	Cc1nc2cnc(N(C)C3CCN(C4(C(F)(F)CO)CC4)CC3)c(C#N)c2c(=O)n1CC#Cc1ccc(Cl)cc1-c1ccnc2c(C(=O)O)csc12 [compound 1131]
< 50	13.3	Cc1nc2cnc(N(C)C3CCN(CC(F)(F)CO)CC3)c(C#N)c2c(=O)n1CC#Cc1ccc(Cl)cc1-c1ccnc2c(C(=O)O)csc12 [compound 1132]
< 50	17	COCC(F)(F)CN1CCC(N(C)c2ncc3nc(C)n(CC#Cc4ccc(Cl)cc4-c4ccnc5c(C(=O)O)csc45)c(=O)c3c2C#N)CC1 [compound 1133]
< 50	15.3	Cc1nc2cnc(N(C)C3CCN(CC(F)(F)CF)CC3)c(C#N)c2c(=O)n1CC#Cc1ccc(Cl)cc1-c1ccnc2c(C(=O)O)csc12 [compound 1134]
< 50	34.3	Cc1nc2cnc(N(C)C3CCN([C@H]4C[C@H](OC(F)F)C4)CC3)c(C#N)c2c(=O)n1CC#Cc1ccc(Cl)cc1-c1ccnc2c(C(=O)O)csc12 [compound 1135]
< 50	17	Cc1nc2cnc(N3CCC4(CC3)CN(CC(F)F)C4)c(C#N)c2c(=O)n1CC#Cc1ccc(Cl)cc1-c1ccnc2c(C(=O)O)csc12 [compound 1136]
< 50	17.4	Cc1nc2cnc(N3CCC4(CC3)CN(CC(C)(F)F)C4)c(C#N)c2c(=O)n1CC#Cc1ccc(Cl)cc1-c1ccnc2c(C(=O)O)csc12 [compound 1137]
< 50	23.7	Cc1cc(-c2cc(Cl)ccc2OCCn2c(C)nc3ccc(CCN(C)C)c(C#N)c3c2=O)c2scc(C(=O)NS(C)(=O)=O)c2n1 [compound 1138]
< 50	6.14	Cc1nc2cnc(N(C)C3CCN(CC(F)(F)F)CC3)c(C#N)c2c(=O)n1CC#Cc1ccc(Cl)cc1-c1ccnc2c(C(=O)O)csc12 [compound 1140]
< 50	13	Cc1nc2cnc(N(C)C3CCN(CC(C)(C)F)CC3)c(C#N)c2c(=O)n1CC#Cc1ccc(Cl)cc1-c1ccnc2c(C(=O)O)csc12 [compound 1142]
< 50	24.6	Cc1nc2cnc(N(C)C3CCN(CC(C)(F)F)CC3)c(C#N)c2c(=O)n1CC#Cc1ccc(Cl)cc1-c1ccnc2c(C(=O)NS(=O)(=O)c3ccncc3)csc12 [compound 1143]
< 50	34.4	Cc1nc2cnc(N(C)C3CCN(CC(C)(F)F)CC3)c(C#N)c2c(=O)n1CC#Cc1ccc(Cl)cc1-c1ccnc2c(C(=O)NS(=O)(=O)c3cccnc3)csc12 [compound 1144]
< 50	33.1	Cc1cc(-c2cc(Cl)ccc2OCCn2c(C)nc3cnc(N4CCN(C)CC4)c(C#N)c3c2=O)c2scc(C(=O)O)c2n1 [compound 1145]

Continued, molecule first:

SMILES	IC50 [1] [nM]	IC50 [2] [nM]
Cc1cc(-c2cc(Cl)ccc2OCCn2c(C)nc3cnc(N4CC(N(C)C)C4)c(C#N)c3c2=O)c2sc(C)c(C(=O)O)c2n1 [compound 1091]	50 to 1000	91.4
Cc1cc(-c2cc(Cl)ccc2OCCn2c(C)nc3cnc(N4[C@@H]5CC[C@H]4CN(C)C5)c(C#N)c3c2=O)c2sc(C)c(C(=O)O)c2n1 [compound 1092]	< 50	42.7
Cc1sc2c(-c3cc(Cl)ccc3OCCn3c(C)nc4cc(C(F)(F)F)c(N5CCN(C)CC5)c(C#N)c4c3=O)ccnc2c1C(=O)O [compound 1093]	50 to 1000	58.6
Cc1cc(-c2cc(Cl)ccc2OCCn2c(C)nc3cc(C(F)(F)F)c(N4CCN(C)CC4)nc3c2=O)c2sc(C)c(C(=O)O)c2n1 [compound 1096]	< 50	33.5
Cc1cc(-c2cc(Cl)ccc2OCCn2c(C)nc3cnc(N4CCC(F)(F)CC4)c(C#N)c3c2=O)c2scc(C(=O)O)c2n1 [compound 1097]	< 50	38.8
Cc1cc(-c2cc(Cl)ccc2OCCn2c(C)nc3cc(-c4cccnc4)c(Cl)c(C#N)c3c2=O)c2scc(C(=O)O)c2n1 [compound 1098]	< 50	15.6
Cc1nc2cnc(N(C)[C@H]3CC[C@H](N4CC(F)(F)C4)CC3)c(C#N)c2c(=O)n1CC#Cc1ccc(Cl)cc1-c1ccnc2c(C(=O)O)csc12 [compound 1099]	< 50	
Cc1nc2cnc(N(C)[C@H]3CC[C@@H](N4CC(F)(F)C4)CC3)c(C#N)c2c(=O)n1CC#Cc1ccc(Cl)cc1-c1ccnc2c(C(=O)O)csc12 [compound 1100]	< 50	33.5
Cc1nc2cnc(N3CCN(C4CC4)CC3(C)C)c(C#N)c2c(=O)n1CCOc1ccc(Cl)cc1-c1ccnc2c(C(=O)O)csc12 [compound 1101]	< 50	7.2
Cc1nc2cnc(N3CCN(C4CC4)CC3(C)C)c(C#N)c2c(=O)n1CC#Cc1ccc(Cl)cc1-c1ccnc2c(C(=O)O)csc12 [compound 1102]	< 50	19.2
Cc1nc2cnc(N(C)C3CCN(CC(F)(F)C(F)F)CC3)c(C#N)c2c(=O)n1CC#Cc1ccc(Cl)cc1-c1ccnc2c(C(=O)O)csc12 [compound 1103]	< 50	14.8
COC(=O)c1csc2c(-c3cc(Cl)ccc3C#CCn3c(C)nc4cnc(N5CCN(CCOC(F)(F)F)CC5)c(C#N)c4c3=O)ccnc12 [compound 1104]	50 to 1000	631
Cc1nc2cnc(N(C)C3CCN(CC(C)(F)F)CC3)c(C#N)c2c(=O)n1CC#Cc1ccc(Cl)cc1-c1ccnc2c(C(=O)NS(=O)(=O)CC(F)F)csc12 [compound 1105]	< 50	21.7
Cc1nc2cnc(N(C)C34CCC(N(C)CCF)(CC3)C4)c(C#N)c2c(=O)n1CC#Cc1ccc(Cl)cc1-c1ccnc2c(C(=O)O)csc12 [compound 1106]	< 50	17.4
Cc1nc2cnc(N(C)C3CCN(CC(F)(F)C(C)(F)F)CC3)c(C#N)c2c(=O)n1CC#Cc1ccc(Cl)cc1-c1ccnc2c(C(=O)O)csc12 [compound 1107]	< 50	10.5
Cc1nc2cnc(N(C)C3CCN(C4CC(F)(F)C4)CC3)c(C#N)c2c(=O)n1CC#Cc1ccc(Cl)cc1-c1ccnc2c(C(=O)NS(C)(=O)=O)csc12 [compound 1108]	< 50	29.1
Cc1nc2cnc(N(C)C3CCN(C4CC(F)(F)C4)CC3)c(C#N)c2c(=O)n1CC#Cc1ccc(Cl)cc1-c1ccnc2c(C(=O)NS(=O)(=O)c3ccccn3)csc12 [compound 1109]	< 50	13.4
Cc1nc2cnc(N(C)C3CCN(C4CC(F)(F)C4)CC3)c(C#N)c2c(=O)n1CC#Cc1ccc(Cl)cc1-c1ccnc2c(C(=O)NS(=O)(=O)c3cccnc3)csc12 [compound 1110]	< 50	7.2
Cc1nc2cnc(N(C)C3CCN(C4CC(F)(F)C4)CC3)c(C#N)c2c(=O)n1CC#Cc1ccc(Cl)cc1-c1ccnc2c(C(=O)NS(=O)(=O)c3ccncc3)csc12 [compound 1111]	< 50	5.71
Cc1nc2cnc(N(C)C3CCN(CC(F)F)CC3)c(C#N)c2c(=O)n1CC#Cc1ccc(Cl)cc1-c1ccnc2c(C(=O)O)csc12 [compound 1112]	< 50	19.9
COC(=O)c1csc2c(-c3cc(Cl)ccc3C#CCn3c(C)nc4cnc(N(C)C5CCN(CC(F)F)CC5)c(C#N)c4c3=O)ccnc12 [compound 1113]	50 to 1000	140
Cc1nc2c(C3CCN(CC(F)(F)F)CC3)ncc(C#N)c2c(=O)n1CCOc1ccc(Cl)cc1-c1ccnc2c(C(=O)O)csc12 [compound 1115]	< 50	6.77
Cc1nc2cnc(C3CCN(CC(F)(F)F)CC3)c(C#N)c2c(=O)n1CC#Cc1ccc(Cl)cc1-c1ccnc2c(C(=O)O)csc12 [compound 1116]	< 50	17.1
Cc1nc2cnc(C3CCN(CC(F)(F)F)CC3)c(C#N)c2c(=O)n1CCOc1ccc(Cl)cc1-c1ccnc2c(C(=O)O)csc12 [compound 1117]	< 50	13.4
Cc1nc2cnc(N(C)C3CCN(C4(C)COC4)CC3)c(C#N)c2c(=O)n1CC#Cc1ccc(Cl)cc1-c1ccnc2c(C(=O)O)csc12 [compound 1118]	< 50	14
Cc1nc2cnc(N(C)C3CCN(CC(F)(F)C(F)(F)F)CC3)c(C#N)c2c(=O)n1CC#Cc1ccc(Cl)cc1-c1ccnc2c(C(=O)O)csc12 [compound 1119]	< 50	14.6
Cc1nc2cnc(N(C)C3CCCCC3)c(C#N)c2c(=O)n1CC#Cc1ccc(Cl)cc1-c1ccnc2c(C(=O)O)csc12 [compound 1120]	< 50	9.51
Cc1nc2cnc(/C=C/CN3CCC(F)(F)CC3)c(C#N)c2c(=O)n1CCOc1ccc(Cl)cc1-c1ccnc2c(C(=O)O)csc12 [compound 1121]	< 50	9.26
